These results are taken from patent US20140288061A1, “INSECTICIDE COMPOSITIONS AND PROCESS” (priority 2004, published 2014).

For this data set, the system named is German cockroaches. Particulars: for LC50 (%) [95% CI]: 2 μl per insect, evaluated after 24 hours, alone or with 10% solution (ETCH) of Tomadol 23-1. How it is done: Dose-response evaluations were performed on 1-4 week old adults SJC Strain (S.C. Johnson & Son, Racine, Wis.) German cockroaches, Blattella germanica, L. Insects were individually transferred using a 7″ (18 cm) […] forceps to 100×20 mm polystyrene Petri dishes. The inside edge of the dishes was lightly coated with a layer of (1:3) mineral oil+petroleum jelly to minimize insect escape. Approximately 10 cockroaches were transferred to each dish and then anesthetized with a 15-25 second exposure to CO2. Anesthetized cockroaches were positioned with their ventral side up in the bottom of the Petri dish. A 2 μl drop of test solution was applied to the area between the meso- and methathoracic legs using a Rainen L-10 10 μl pipette. Control cockroaches were treated with a 2 μl drop of the solvent, 100% ethyl alcohol.
Structure—activity tests used to calculate LT50 values were scored approximately every 30 minutes for the first two hours following treatment followed by approximate hourly readings to hour 8 with a final reading at 24 hours. Cockroaches were scored as either alive (dorsal side up, active movement when abdomen prodded) or moribund/dead (dorsal side up and no movement when abdomen prodded or ventral side up and insect unable to right itself).

As to `COP(=O)(NC(C)=O)SC` (centres unmarked) [acephate], the “LC50 (%) [95% CI]” value is 0.0051%. Also, the “synergy of insecticidal activity by Tomadol 23-1 (reduced the LC50)” value (in words) is “did not synergize”.

`CCOCn1c(-c2ccc(Cl)cc2)c(C#N)c(Br)c1C(F)(F)F` [chlorfenapyr]: the “LC50 (%) [95% CI]” value turned out to be 0.4062%.

As to `CN/C(=N\[N+](=O)[O-])NCc1cnc(Cl)s1` [clothianidin], the “LC50 (%) [95% CI]” value turned out to be 0.0020%.

Take `CC1(C)C(C=C(Cl)Cl)C1C(=O)OC(C#N)c1ccc(F)c(Oc2ccccc2)c1` (centres unmarked) [cyfluthrin]: the “LC50 (%) [95% CI]” value stood at 0.0050%.

On to `O=[N+]([O-])NC1=NCCN1Cc1ccc(Cl)nc1` [imidacloprid], for which the “LC50 (%) [95% CI]” value came out at 0.0219%.

Consider `CNC(=O)Oc1ccccc1OC(C)C` [propoxur], for which the “LC50 (%) [95% CI]” value is listed as 0.0101%.

For the molecule `CN1COCN(Cc2cnc(Cl)s2)/C1=N\[N+](=O)[O-]` [thiamethoxam], the “LC50 (%) [95% CI]” value is on record as 0.0038%.
